Assay results published in US20240376153A1, “CNP CYCLIC PEPTIDE, AND MEDICINE, EXTERNAL PREPARATION AND COSMETIC EACH CONTAINING SAID CYCLIC PEPTIDE” (Igisu Co., Ltd., priority 2015, published 2024).
“Also recorded” adds a separate entry of the source. Positions of bridges follow the written chain, without caps; N, C: chain ends. Residues, ends and D or L forms follow the SMILES beside them. No end group written: not given here.

What was measured:
[1] = test system: nasal cavity, the affected site; assay: Effect on nose of cyclic peptides in which amino acid was substituted; conditions: for irritation upon nasal application: Formulation C = 30 μg/ml, nasal application once/day
Protocol: The obtained cyclic peptide was combined with purified water at 1, 5, 30, 100, 500 μg/ml and applied to the affected site. Formulations A to E in the tables refers to the cyclic peptide of 1, 5, 30, 100, 500 μg/ml, respectively.

affected site of skin = assay: Effect on skin of cyclic peptides in which amino acid was substituted; assay type: in vivo, human
Protocol: Formulations A to E refers to cyclic peptide concentration of 1, 5, 30, 100, 500 μg/ml, respectively.

[2] = rough skin, Formulation C (30 μg/ml)
[3] = atopic dermatitis, Formulation B (5 μg/ml in purified water) applied to affected site
[4] = atopic dermatitis, Formulation C (30 μg/ml in purified water) applied to affected site
[5] = rough skin, Formulation A (1 μg/ml)
[6] = psoriasis vulgaris, Formulation C (30 μg/ml)

Compound: CC[C@H](C)[C@@H]1NC(=O)[C@H](CCCNC(=N)N)NC(=O)[C@H](CC(=O)O)NC(=O)[C@H](CCSC)NC(=O)[C@H](CCCCN)NC(=O)[C@H](CC(C)C)NC(=O)[C@H](C)NC(=O)[C@H](Cc2ccccc2)NC(=O)[C@@H](N)CSSC[C@@H](C(=O)O)NC(=O)CNC(=O)[C@H](CC(C)C)NC(=O)CNC(=O)[C@H](CO)NC(=O)[C@H](CCSC)NC(=O)[C@H](CO)NC(=O)CNC1=O [SEQ ID NO. 32] (H-CFALKMDRIGSMSGLGC-OH; disulfide 1-17; N-terminus and C-terminus assumed)
- irritation upon nasal application [1]: There was no irritation upon nasal application.

Compound: CC[C@H](C)[C@@H]1NC(=O)[C@H](CCCNC(=N)N)NC(=O)[C@H](CC(=O)O)NC(=O)[C@H](CC(C)C)NC(=O)[C@H](CCCCN)NC(=O)[C@H](CC(C)C)NC(=O)CNC(=O)[C@H](Cc2ccccc2)NC(=O)[C@@H](N)CSSC[C@@H](C(=O)O)NC(=O)CNC(=O)[C@H](Cc2ccccc2)NC(=O)CNC(=O)[C@H](CO)NC(=O)[C@H](CCSC)NC(=O)[C@H](CO)NC(=O)CNC1=O [SEQ ID NO: 21] (H-CFGLKLDRIGSMSGFGC-OH; disulfide 1-17; N-terminus and C-terminus assumed)
- irritation upon nasal application [1]: upon blowing. There was no irritation upon nasal

Compound: CC[C@H](C)[C@@H]1NC(=O)CNC(=O)[C@H](CO)NC(=O)[C@H](CCSC)NC(=O)[C@H]([C@@H](C)O)NC(=O)CNC(=O)[C@H]([C@@H](C)CC)NC(=O)[C@H](CCCNC(=N)N)NC(=O)[C@H](CC(=O)O)NC(=O)[C@H](CCSC)NC(=O)[C@H](CCCCN)NC(=O)[C@H](CC(C)C)NC(=O)CNC(=O)[C@H](Cc2ccccc2)NC(=O)[C@@H](N)CSSC[C@@H](C(=O)O)NC(=O)CNC1=O [SEQ ID NO: 52] (H-CFGLKMDRIGTMSGIGC-OH; disulfide 1-17; N-terminus and C-terminus assumed)
- irritation upon nasal application [1]: clear. There was no irritation upon nasal application.

Compound: CC[C@H](C)[C@@H]1NC(=O)CNC(=O)[C@H]([C@@H](C)O)NC(=O)[C@H](CCSC)NC(=O)[C@H](CO)NC(=O)CNC(=O)[C@H]([C@@H](C)CC)NC(=O)[C@H](CCCNC(=N)N)NC(=O)[C@H](CC(=O)O)NC(=O)[C@H](CC(C)C)NC(=O)[C@H](CCCCN)NC(=O)[C@H](CC(C)C)NC(=O)CNC(=O)[C@H](Cc2ccccc2)NC(=O)[C@@H](N)CSSC[C@@H](C(=O)O)NC(=O)CNC1=O [SEQ ID NO: 41] (H-CFGLKLDRIGSMTGIGC-OH; disulfide 1-17; N-terminus and C-terminus assumed)
- irritation upon nasal application [1]: There was no irritation upon nasal application.

Compound: SEQ ID NO: 6: cyclic peptide in which one amino acid has been substituted (CFALKLDRIGSMSGLGC; disulfide 1-17)
- Post-treatment diagnostic skin impression (affected site of skin; eczema, large winkles, Formulation B (5 μg/ml)): Immediately after application, itches were eliminated.
- Post-treatment diagnostic skin impression (affected site of skin; [2]): texture was improved. After 2 min, wrinkles were shallowed,; also recorded: skin was full and given resilience; also recorded: Immediately after application, itches were eliminated, skin

Compound: SEEQ ID NO: 3 (CFGLKLDRIGSMSGLGC; disulfide 1-17)
- Post-treatment diagnostic skin impression ([1]; nasal application for comparison of right and left in one subject, Formulation A = 1 μg/ml, once/day): After 3 min, nasal discharge did not stop; also recorded: After 2 min, nose was not clear

Compound: CC[C@H](C)[C@@H]1NC(=O)[C@H](CCCNC(=N)N)NC(=O)[C@H](CC(=O)O)NC(=O)[C@H](CC(C)C)NC(=O)[C@H](CCCCN)NC(=O)[C@H](CC(C)C)NC(=O)CNC(=O)[C@H](Cc2ccccc2)NC(=O)[C@@H](N)CSSC[C@@H](C(=O)O)NC(=O)CNC(=O)[C@H](CCSC)NC(=O)CNC(=O)[C@H](CO)NC(=O)[C@H](CCSC)NC(=O)[C@H](CO)NC(=O)CNC1=O [SEQ ID NO: 20] (H-CFGLKLDRIGSMSGMGC-OH; disulfide 1-17; N-terminus and C-terminus assumed)
- irritation upon nasal application [1]: There was no irritation upon nasal application.

Compound: SEQ ID NO: 8: cyclic peptide in which one amino acid has been substituted (CFGLKMDRIGSMSGLGC; disulfide 1-17)
- Post-treatment diagnostic skin impression (affected site of skin; atopic dermatitis, Formulation A (1 μg/ml), two-sided application (right vs left) in the same subject): After 1 min, erythema, infiltration, itches were remitted; also recorded: After 2 min, stining feeling was eliminated; also recorded: Immediately after application, itches were eliminated; also recorded: improved, skin texture was improved and moistened
- Post-treatment diagnostic skin impression (affected site of skin; [3]): Immediately after application, itches were eliminated,; also recorded: erythema and scales were remitted
- Post-treatment diagnostic skin impression (affected site of skin; [4]): the day next, erythema was remarkably improved; also recorded: After stopping 3 days of application, the effects lasted
- Post-treatment diagnostic skin impression (affected site of skin; [5]): Immediately after application itches were eliminated; also recorded: After 3 min, skin texture was improved finely, pore
- Post-treatment diagnostic skin impression (affected site of skin; seborrheic dermatitis, acne (comedo), Formulation C (30 μg/ml)): After 1 min, itches were eliminated; also recorded: opening became inconspicuous, acne (comedo) was reduced

Compound: SEQ ID NO: 17: cyclic peptide in which one amino acid has been substituted (CFGLKLDRIGSMSGAGC; disulfide 1-17)
- Post-treatment diagnostic skin impression (affected site of skin; [4]): Immediately after application, itches were eliminated; also recorded: remitted

Compound: SEQ ID NO: 15: cyclic peptide in which one amino acid has been substituted (CFGLKLDRIGSMTGLGC; disulfide 1-17)
- Post-treatment diagnostic skin impression (affected site of skin; psoriasis vulgaris, Formulation B (5 μg/ml)): remarkably remitted, crusts were eliminated.
- Post-treatment diagnostic skin impression (affected site of skin; psoriasis, Formulation B (5 μg/ml)): After 3 min, scales were remitted. 3 min after further; also recorded: reduced
- Post-treatment diagnostic skin impression (affected site of skin; rough skin, wrinkles, Formulation A (1 μg/ml)): kept moistened, facial erythema and scales were normalized.
- Post-treatment diagnostic skin impression (affected site of skin; seborrheic dermatitis, Formulation C (30 μg/ml)): Immediately after application, itches were remitted

Compound: SEQ ID NO: 12: cyclic peptide in which one amino acid has been substituted (CFGLKLDRIGVMSGLGC; disulfide 1-17)
- Post-treatment diagnostic skin impression (affected site of skin; [2]): improved.

Compound: SEQ ID NO: 51: cyclic peptide in which three amino acids have been substituted (CFGLKMDRIGTMTGLGC; disulfide 1-17)
- Post-treatment diagnostic skin impression (affected site of skin; [4]): Immediately after application, itches were eliminated; also recorded: scratch scars were remitted
- Post-treatment diagnostic skin impression (affected site of skin; eczema, Formulation B (5 μg/ml)): Immediately after application, itches were eliminated; also recorded: After 3 min, erythema and infiltration were remitted

Compound: SEQ ID NO: 37: cyclic peptide in which two amino acids have been substituted (CFGLKMDRIGSMTGLGC; disulfide 1-17)
- Post-treatment diagnostic skin impression (affected site of skin; atopic dermatitis, Formulation A (1 μg/ml in purified water) applied to affected site): After 2 min, itches were eliminated.
- Post-treatment diagnostic skin impression (affected site of skin; [4]): Immediately after application, itches were remitted,; also recorded: erythema, infiltration and scales were remarkably improved

Compound: SEQ ID NO: 35: cyclic peptide in which two amino acids have been substituted (CFALKLDRIGSMSGIGC; disulfide 1-17)
- Post-treatment diagnostic skin impression (affected site of skin; [3]): Immediately after application, itches were eliminated,; also recorded: erythema ard scales were remarkably improved
- Post-treatment diagnostic skin impression (affected site of skin; [4]): After 1 min, itches were eliminated; also recorded: After 2 min, scales and erythema were remarkably improved; also recorded: After 3 min, skin was almost normalized and moisturized

Compound: SEQ ID NO: 14: cyclic peptide in which one amino acid has been substituted (CFGLKLDRIGLMSGLGC; disulfide 1-17)
- Post-treatment diagnostic skin impression (affected site of skin; [3]): After 1 min, itches, scales, erythema
- Post-treatment diagnostic skin impression (affected site of skin; [6]): After 3 min, scales, crusts and infiltration were remitted.

Compound: SEQ ID NO: 38: cyclic peptide in which two amino acids have been substituted (CFGLKMDRIGSMSGIGC; disulfide 1-17)
- Post-treatment diagnostic skin impression (affected site of skin; [4]): After 1 min, itches were eliminated; also recorded: improved. After 3 min, skin was almost normalized and; also recorded: moisturized
- Post-treatment diagnostic skin impression (affected site of skin; contact dermatitis, Formulation C (30 μg/ml)): After 1 min, itches was remitted; also recorded: After 3 min, swelling lessened, erythema was remitted
- Post-treatment diagnostic skin impression (affected site of skin; [6]): After 3 min, scales and infiltration were remitted
- Post-treatment diagnostic skin impression (affected site of skin; rough skin, contact dermatitis, Formulation A (1 μg/ml), two-sided application (right vs left)): After 2 min, rought desiccation and erythema was remitted,; also recorded: skin texture was improved and moisturized
- Post-treatment diagnostic skin impression (affected site of skin; rough skin, wrinkles, Formulation B (5 μg/ml)): shallowed, skin was full and given resilience.
- Post-treatment diagnostic skin impression (affected site of skin; [5]): kept moistened.

Compound: SEQ ID NO: 49: cyclic peptide in which three amino acids have been substituted (CFALKMDRIGSMTGLGC; disulfide 1-17)
- Post-treatment diagnostic skin impression (affected site of skin; psoriasis vulgaris, Formulation A (1 μg/ml)): erythema were remitted.

Compound: SEQ ID NO: 32 (CFALKMDRIGSMSGLGC; disulfide 1-17)
- Post-treatment diagnostic skin impression (affected site of skin; [6]): remitted. After 10 min, erythema was further remitted.
- Post-treatment diagnostic skin impression (affected site of skin; rough skin, acne (comedo), Formulation C (30 μg/ml)): Immediately after application, itches were eliminated; also recorded: (comedo) was reduced
